According to US8197819B2, “Env polypeptide complexes and methods of use” (priority 2004, dated 2012):
Entries after “also recorded” stand apart in the source; their conditions may differ.

Experiments:
Set-up in all cases: species or system HIV
gp120 (48D epitope) = target: T1, gp120 (48D epitope) (Human immunodeficiency virus type 1 group M subtype B, UniProt P19550); assay: SPR (Biacore) upregulation of monoclonal antibody 48D binding to Env/compound complex; settings: Example 6 screening; FIG. 6C
T1 construct: The concentration of gp120SMF162 used was 1 uM for all samples
Description: (§1) Surface plasmon resonance assays were performed using a BIACORE 3000 optical biosensor system (Biacore AB, Uppsala, Sweden) with simultaneous monitoring of relevant flow cells. To perform the kinetic study of the binding of HIV env to sCD4, sCD4 was immobilized using amine coupling onto CM5 sensor chip to attain 4000 response units. To perform the kinetic study of the binding of HIV env to the monoclonal antibody 17b, antibodies were immobilized using amine coupling onto a CM5 sensor chip to attain 2000 response units. Using PBS buffer (pH 7.4) with 0.05% Tween 20 and 3% DMSO, association was assessed by passing gp120SF162 (GenBank P03378; Sanchez-Pescador et al. (1985) Science, 227(4686): 484-492), with and without various controls or small molecules, over the chip surface at a flow rate of 25 μl/min. The concentration of gp120SMF162 used was 1 uM for all samples. As a negative control, a control surface coupled to 2000 response units of BSA (Pierce) was used. A buffer only control was subtracted from all sensograms. Responses were measured by assessing the maximum RUs (response units) obtained at the peak of the binding curve.
Additional candidate small molecules were screened for CD4 binding inhibition and upregulation of CD4 inducible epitopes, e.g., mABs 17b and 48D, by HPLC and BlAcore methods as described in Examples 1 and 4 above. […]

gp120SF162 (17b epitope) = gp120SF162 (17b epitope) (Human immunodeficiency virus type 1 group M subtype B, UniProt P19550); assay: SPR (Biacore) upregulation of monoclonal antibody 17b binding to Env/compound complex; settings: for upregulation of CD4 inducible epitopes on gp120: FIGS. 4B, 5B, antibody not stated in the legend
Description: (§2) In a second step, each of the 100 structurally identified compounds was screened for its ability to compete with CD4 binding to Env (gp120) as well as its ability to induce the desired conformational change in the HIV Env protein to expose inducible epitopes. Both binding competition and exposure of cryptic epitopes were analyzed using Biacore's SRP systems. (Biacore Inc., Piscataway, N.J.), following the manufacturer's instructions.
as §1
The percentage upregulation of 17b was determined by dividing the peak RU observed for the Env polypeptide/compound complex divided by the peak RU for the Env polypeptide alone.
(§3) Additional candidate small molecules were screened for CD4 binding inhibition and upregulation of CD4 inducible epitopes, e.g., mABs 17b and 48D, by HPLC and BlAcore methods as described in Examples 1 and 4 above. Each of the compounds in Table 5 below was screened three times by both methods using different lots of both gp120 and antibodies. The rounds of screening tests were additionally carried out on different dates.

gp120SF162 [1] = target: T2, gp120SF162 (Human immunodeficiency virus type 1 group M subtype B, UniProt P19550); assay: Example 6 screening for CD4 binding inhibition (SEC-HPLC with fluorescently-labelled CD4, and Biacore); settings: three rounds
Excerpt: as §3
CD4 binding competition was examined in the free solution state by HPLC. Various candidate small molecules were each mixed with gp120SF162 and the resulting solution was incubated for 1 hour at 37° C. Fluorescently-labelled CD4, CD4 488, was then added to each incubated solution, and the resulting mixture was analyzed by size exclusion HPLC (SEC-HPLC), using fluorescent signal detection. The extent of competition with CD4 was determined as follows.

gp120SF162 [2] = target: T2, gp120SF162; assay: SPR (Biacore) competition: gp120 binding to immobilized sCD4 with and without small molecule; settings: FIG. 1, compared to when the small molecule was not present
Description: as §2
as §1, with “The concentration of gp120SMF162 used was 1 uM for all samples. As a negative control, a control surface coupled to 2000 response units of BSA (Pierce) was used. A buffer only control was subtracted from all sensograms.” left out

Compound	upregulation of CD4 inducible epitopes on gp120, binding to monoclonal antibody 48D (gp120 (48D epitope))	upregulation of 17b (CD4 inducible epitope on gp120) (gp120SF162 (17b epitope); Example 6 screening, binding to monoclonal antibody 17b)	inhibition of (competition with) CD4 binding to gp120 (gp120SF162 [1])	inhibition of CD4 binding to Env (Env binding to the CD4 chip) (gp120SF162 [2])	binding of Env/small molecule complex to monoclonal antibody 17b (gp120SF162 (17b epitope); SPR, FIG. 2, in comparison to Env-sCD4 complexes)	upregulation of CD4 inducible epitopes on gp120 (gp120SF162 (17b epitope); Example 6 screening)
COc1ccc2[nH]cc(C(=O)CN3CCN(Cc4ccccc4)CC3)c2c1 [Compound 2, 2-(4-benzylpiperazin-1-yl)-1-(5-methoxy-1H-indol-3-yl)ethanone]	upregulation of CD4 inducible epitopes on gp120	upregulation of CD4 inducible epitopes on gp120	non-inhibition of CD4 binding to gp120	–	–	–
CCOC(=O)C1CCN(C(=O)c2cc3c(C)cc(C)cc3[nH]2)CC1 [Compound 5, ethyl 1-[(4,6-dimethyl-1H-indol-2-yl)carbonyl]piperidine-4-carboxylate]	–	–	–	inhibition of CD4 binding to Env; also recorded: inhibited binding of Env to the CD4 chip	exhibited enhanced binding to monoclonal antibody 17b	–
COc1cc(C(=O)N2CCC(c3c[nH]c4ccccc34)CC2)cc(OC)c1OC [Compound 12, [4-(1H-indol-3-yl)-piperidin-1-yl]-(3,4,5-trimethoxy-phenyl)-methanone]	–	–	inhibition of CD4 binding to gp120	–	–	absence of upregulation of CD4 inducible epititopes on gp120
COc1ccccc1N1CCN(CC(=O)c2c(C)[nH]c3ccccc23)CC1 [Compound 26, 2-[4-(2-Methoxy-phenyl)-piperazin-1-yl]-1-(2-methyl-1H-indol-3-yl)-ethanone]	–	–	inhibition of CD4 binding to gp120	–	–	upregulation of CD4 inducible epititopes on gp120
